Measured values published in ChEMBL document CHEMBL3091300, “Truncated and constrained helical analogs of antimicrobial esculentin-2EM” (Bioorg Med Chem Lett, 2013).
≈ marks a conversion by molar mass, not a printed value. *1 amine or outer side, *2 acyl side, *3 side chain or, on linkers, in order; H or OH if unused. Where a SMILES comes first, the peptide text is derived from it. Bridges are numbered along the chain shown (N, C = ends). [ ]: non-standard residue; d: D form. Nle(6-ylidene) = O=C([C@H](CCCC=[*:3])N[*:1])[*:2]; S5 = C=CCCC[C@](C)(N)C(=O)O

Experiments:
Pseudomonas aeruginosa = test: Antibacterial activity against Pseudomonas aeruginosa ATCC 27853 assessed as growth inhibition after 24 hrs by broth microdilution method; assay type: functional; conditions: ATCC 27853, 24 h
[1] = tested on: Staphylococcus epidermidis; test: Antibacterial activity against Staphylococcus epidermidis ATCC 12228 assessed as growth inhibition after 24 hrs by broth microdilution method; assay type: functional; conditions: ATCC 12228, 24 h
Staphylococcus aureus = test: Antibacterial activity against Staphylococcus aureus ATCC 6538p assessed as growth inhibition after 24 hrs by broth microdilution method; assay type: functional
Shigella dysenteriae = test: Antibacterial activity against Shigella dysenteriae ATCC 9752 assessed as growth inhibition after 24 hrs by broth microdilution method; assay type: functional; conditions: ATCC 9752, 24 h
Proteus mirabilis = test: Antibacterial activity against Proteus mirabilis ATCC 25933 assessed as growth inhibition after 24 hrs by broth microdilution method; assay type: functional; conditions: ATCC 25933, 24 h
Salmonella typhimurium = test: Antibacterial activity against Salmonella typhimurium ATCC 14028 assessed as growth inhibition after 24 hrs by broth microdilution method; assay type: functional, Salmonella enterica subsp. enterica serovar Typhimurium; conditions: Salmonella enterica, ATCC 14028, 24 h
[2] = Drug metabolism assessed as trypsin (unknown origin)-mediated digestion by measuring compound remaining at 0.09 uM after 60 mins by HPLC analysis; assay type: ADME; conditions: human, read-out: Stability
Bacillus spizizenii = test: Antibacterial activity against Bacillus subtilis ATCC 6633 assessed as growth inhibition after 24 hrs by broth microdilution method; assay type: functional; conditions: ATCC 6633, 24 h
[3] = Drug metabolism assessed as trypsin (unknown origin)-mediated digestion by measuring half life at 0.09 uM by HPLC analysis; assay type: ADME; conditions: human
Escherichia coli = test: Antibacterial activity against Escherichia coli ATCC 25922 assessed as growth inhibition after 24 hrs by broth microdilution method; assay type: functional; conditions: ATCC 25922, 24 h
Klebsiella pneumoniae = test: Antibacterial activity against Klebsiella pneumoniae ATCC 10031 assessed as growth inhibition after 24 hrs by broth microdilution method; assay type: functional; conditions: ATCC 10031, 24 h
[4] = Drug metabolism assessed as trypsin (unknown origin)-mediated digestion at 0.09 uM after 15 mins by HPLC analysis; assay type: ADME; conditions: human, 0.25 h

| Molecule | MIC (Pseudomonas aeruginosa) [µg/mL] | MIC [1] [µg/mL] | MIC (Staphylococcus aureus) [µg/mL] | MIC (Shigella dysenteriae) [µg/mL] | MIC (Proteus mirabilis) [µg/mL] | MIC (Salmonella typhimurium) [µg/mL] | remaining at 1 h, 0.09 µM [2] [%] | MIC (Bacillus spizizenii) [µg/mL] | half-life at 0.09 µM [3] [h] | MIC (Escherichia coli) [µg/mL] | MIC (Klebsiella pneumoniae) [µg/mL] | Drug metabolism [4] |
| --- | --- | --- | --- | --- | --- | --- | --- | --- | --- | --- | --- | --- |
| CC(=O)N[C@H](C(=O)N[C@@H](CC(C)C)C(=O)N[C@@H](CCCCN)C(=O)N[C@@H](CCC(N)=O)C(=O)N[C@@H](Cc1ccccc1)C(=O)N[C@@]1(C)CCC/C=C\CCC[C@@H](C(=O)N[C@@H](CCCCN)C(=O)N[C@@H](Cc2c[nH]c3ccccc23)C(=O)N[C@@H](CC(C)C)C(=O)N[C@H](C(=O)N[C@@H](CCCCN)C(N)=O)C(C)C)NC(=O)[C@H](C(C)C)NC(=O)CNC(=O)[C@H](CCCCN)NC1=O)[C@@H](C)O (Ac-TLKQF[S5]KGV[Nle(6-ylidene)]KWLVK-NH2; staple (Z) 6-10) | > 200 | > 200 | 3.13 (≈ 1.69 µM) | > 200 | > 200 | > 200 | > 90 | 3.13 (≈ 1.69 µM) | 1.2 | > 200 | > 200 | – |
| CC(=O)N[C@H](C(=O)N[C@@H](CC(C)C)C(=O)N[C@@H](CCCCN)C(=O)N[C@@H](CCC(N)=O)C(=O)N[C@@H](Cc1ccccc1)C(=O)N[C@@]1(C)CCC/C=C\CCC[C@@H](C(=O)N[C@@H](CCCCN)C(=O)N[C@@H](CC(=O)O)C(=O)N[C@@H](CC(C)C)C(=O)N[C@H](C(=O)N[C@@H](CCCCN)C(N)=O)C(C)C)NC(=O)[C@H](Cc2c[nH]c3ccccc23)NC(=O)CNC(=O)[C@H](CCCCN)NC1=O)[C@@H](C)O (Ac-TLKQF[S5]KGW[Nle(6-ylidene)]KDLVK-NH2; staple (Z) 6-10) | 200 (≈ 107 µM) | > 200 | 6.25 (≈ 3.35 µM) | 50 (≈ 26.8 µM) | > 200 | > 200 | 75 | 6.25 (≈ 3.35 µM) | 0.617 | 100 (≈ 53.5 µM) | 50 (≈ 26.8 µM) | – |
| CC(=O)N[C@H](C(=O)N[C@@H](CC(C)C)C(=O)N[C@@H](CCCCN)C(=O)N[C@@H](CCC(N)=O)C(=O)N[C@@H](Cc1c[nH]c2ccccc12)C(=O)N[C@@]1(C)CCC/C=C\CCC[C@@H](C(=O)N[C@@H](CCCCN)C(=O)N[C@@H](CC(=O)O)C(=O)N[C@@H](CC(C)C)C(=O)N[C@H](C(=O)N[C@@H](CCCCN)C(N)=O)C(C)C)NC(=O)[C@H](C(C)C)NC(=O)CNC(=O)[C@H](CCCCN)NC1=O)[C@@H](C)O (Ac-TLKQW[S5]KGV[Nle(6-ylidene)]KDLVK-NH2; staple (Z) 6-10) | > 200 | 100 (≈ 54.9 µM) | 6.25 (≈ 3.43 µM) | 50 (≈ 27.5 µM) | > 200 | > 200 | > 90 | 6.25 (≈ 3.43 µM) | 1.18 | 100 (≈ 54.9 µM) | 50 (≈ 27.5 µM) | – |
| Ac-GILDTLKQFAKGVGKWLVKGAAQ-NH2 | > 200 | > 200 | 100 | > 200 | > 200 | > 200 | – | 50 | – | > 200 | > 200 | Active |
| Ac-TLKQFAKGVGKWLVK-NH2 | > 200 | > 200 | 100 | > 200 | > 200 | > 200 | – | 200 | – | 200 | > 200 | Active |
